Experimental data: ChEMBL document CHEMBL4346685, “Naphthyl quinoxaline thymidine conjugate is a potent anticancer agent post UVA activation and elicits marked inhibition of tumor growth through vaccination” (Eur J Med Chem, 2019)
pIC50: −log10 of the molar value. Activity calls are given as the source filed them. The calls are words filed in the database; no cut-off is given here.

Key:
MCF7 [1] = test: Antiproliferative activity against human MCF7 cells assessed as reduction in cell viability preincubated for 5 hrs followed by compound washout and subsequent 3 mW/cm2 UVA irradiation measured 48 hrs post irradiation by CCK8 assay; type: functional, cell-based; settings: MCF7, light or radiation study
Bel-7402 [2] = test: Dark toxicity against human Bel7402 cells up to 500 nM incubated for 5 hrs followed by compound washout and measured after 48 hrs by CCK8 assay; type: cell-based; settings: bel-7402, 5 h
H22 [3] = test: Dark toxicity against mouse H22 cells up to 500 nM preincubated for 5 hrs followed by compound washout and measured after 48 hrs by CCK8 assay; type: cell-based; settings: h22, 48 h
H22 [4] = test: Antiproliferative activity against mouse H22 cells assessed as reduction in cell viability preincubated for 5 hrs followed by compound washout and subsequent 2 mW/cm2 UVA irradiation measured 48 hrs post irradiation by CCK8 assay; type: functional, cell-based; settings: H22, light or radiation study
MCF7 [5] = test: Dark toxicity against human MCF7 cells up to 500 nM preincubated for 5 hrs followed by compound washout and measured after 48 hrs by CCK8 assay; type: cell-based; settings: mcf7, 48 h
A-375 [6] = test: Antiproliferative activity against human A375 cells assessed as reduction in cell viability preincubated for 5 hrs followed by compound washout and subsequent 3 mW/cm2 UVA irradiation measured 48 hrs post irradiation by CCK8 assay; type: functional, cell-based; settings: A-375, light or radiation study
A-375 [7] = test: Dark toxicity against human A375 cells up to 500 nM preincubated for 5 hrs followed by compound washout and measured after 48 hrs by CCK8 assay; type: cell-based; settings: a-375, 48 h
Bel-7402 [8] = test: Antiproliferative activity against human Bel7402 cells assessed as reduction in cell viability preincubated for 5 hrs followed by compound washout and subsequent 3 mW/cm2 UVA irradiation for 20 mins measured 48 hrs post irradiation by CCK8 assay; type: functional, cell-based; settings: Bel-7402, light or radiation study
H22 [9] = test: Antitumor activity against mouse H22 cells allografted in immunocompetent Balb/c mouse assessed as decrease in lump formation at challenge site at 2 uM incubated with cells for 5 hrs followed by compound washout prior to vaccination and subsequent H22 cells addition 10 days post vaccination and measured over 30 days; type: functional, cell-based
H22 [10] = test: Induction of immunogenic cell death in mouse H22 cells assessed as increase in intracellular calreticulin level at 2 uM measured after 5 hrs by flow cytometric analysis; type: functional, cell-based
H22 [11] = test: Induction of immunogenic cell death in mouse H22 cells assessed as increase in calreticulin level in cell surface at 2 uM incubated for 5 hrs by Hoechst staining based fluorescence microscopic analysis; type: functional
A-375 [12] = test: Cytotoxicity against human A375 cells assessed as reduction in cell viability preincubated for 5 hrs followed by compound washout and measured after 48 hrs by CCK8 assay; type: functional, cell-based
Bel-7402 [13] = test: Cytotoxicity against human Bel7402 cells assessed as reduction in cell viability preincubated for 5 hrs followed by compound washout and measured after 48 hrs by CCK8 assay; type: functional, cell-based
H22 [14] = test: Induction of immunogenic cell death in mouse H22 cells assessed as increase in extracellular HMGB1 level at 2 uM incubated for 5 hrs by ELISA; type: functional, cell-based
H22 [15] = test: Induction of immunogenic cell death in mouse H22 cells assessed as increase in extracellular ATP level at 2 uM measured after 5 hrs by chemiluminescence-based assay; type: functional
H22 [16] = test: Antitumor activity against mouse H22 cells allografted in immunocompetent Balb/c mouse assessed as inhibition of tumour formation at 2 uM incubated with cells for 5 hrs prior to 20 mins 2 mW/cm2 UVA irradiation post compound washout followed by vaccination and measured within 5 days; type: functional, cell-based
[17] = Dark toxicity against mouse H22 cells assessed as reduction in cell viability preincubated for 5 hrs followed by compound washout and measured after 48 hrs by CCK8 assay; type: cell-based
MCF7 [18] = test: Cytotoxicity against human MCF7 cells assessed as reduction in cell viability preincubated for 5 hrs followed by compound washout and measured after 48 hrs by CCK8 assay; type: functional, cell-based
H22 [19] = test: Induction of immunogenic cell death in mouse H22 cells assessed as extracellular ATP level at 2 uM measured after 24 hrs by chemiluminescence-based assay; type: functional
H22 [20] = test: Antitumor activity against mouse H22 cells allografted in immunocompetent Balb/c mouse assessed as decrease in lump formation in vaccination site at 2 uM incubated with cells for 5 hrs prior to 20 mins 2 mW/cm2 UVA irradiation post compound washout followed by vaccination and measured over 30 days; type: functional, cell-based
H22 [21] = test: (§1) Induction of immunogenic cell death in mouse H22 cells assessed as increase in intracellular calreticulin level at 60 to 250 nM preincubated for 5 hrs followed by compound washout and subsequent 2 mW/cm2 UVA irradiation for 20 mins measured 2 hrs post irradiation by flow cytometric analysis; type: functional, cell-based
H22 [22] = test: Antitumor activity against mouse H22 cells allografted in immunocompetent Balb/c mouse assessed as decrease in lump formation at vaccination site at 250 nM incubated with cells for 5 hrs prior to 20 mins 2 mW/cm2 UVA irradiation post compound washout followed by vaccination and measured over 30 days; type: functional, cell-based
H22 [23] = test: Antitumor activity against mouse H22 cells allografted in immunocompetent Balb/c mouse assessed as inhibition of tumour formation at 60 nM incubated with cells for 5 hrs prior to 20 mins 2 mW/cm2 UVA irradiation post compound washout followed by vaccination and measured over 10 days; type: functional, cell-based
H22 [24] = test: (§2) Antitumor activity against mouse H22 cells allografted in immunocompetent Balb/c mouse assessed as decrease in tumour formation at challenge site at 250 nM incubated with cells for 5 hrs followed by compound washout before 2 mW/cm2 UVA irradiation for 20 mins and followed by vaccination and subsequent H22 cells addition 10 days post vaccination and measured on day 25; type: functional, cell-based
H22 [25] = test: Dark toxicity in mouse H22 cells assessed as increase in extracellular HMGB1 level at 120 to 250 nM incubated for 5 hrs by ELISA; type: cell-based; settings: h22, 5 h, 0.25 µM
H22 [26] = test: as §2, with “after 2 weeks” for “on day 25”; type: functional, cell-based
MCF7 [27] = test: Induction of reactive oxygen species generation in human MCF7 cells up to 200 nM preincubated for 5 hrs followed by compound washout and subsequent 3 mW/cm2 UVA irradiation measured 10 mins post irradiation by DCFH-DA probe based fluorescence microscopic analysis; type: functional, cell-based
H22 [28] = test: Induction of immunogenic cell death in mouse H22 cells assessed as extracellular HMGB1 level at 120 to 250 nM preincubated for 5 hrs followed by compound washout and subsequent 2 mW/cm2 UVA irradiation measured 2 hrs post irradiation by ELISA; type: functional
H22 [29] = test: as §2, with “after 2 months” for “on day 25”; type: functional, cell-based
H22 [30] = test: Induction of immunogenic cell death in mouse H22 cells assessed as extracellular ATP level at 250 nM preincubated for 5 hrs followed by compound washout and subsequent 2 mW/cm2 UVA irradiation for 20 mins measured 2 hrs post irradiation by chemiluminescence-based assay; type: functional
H22 [31] = test: Antitumor activity against mouse H22 cells allografted in immunocompetent Balb/c mouse assessed as inhibition of tumour formation at 250 nM incubated with cells for 5 hrs prior to 20 mins 2 mW/cm2 UVA irradiation post compound washout followed by vaccination and measured within 5 days; type: functional, cell-based
H22 [32] = test: as §1, with “irradiation” for “irradiation for 20 mins”, “Hoechst staining based fluorescence microscopic” for “flow cytometric”; type: functional
H22 [33] = test: Induction of immunogenic cell death in mouse H22 cells assessed as […] in extracellular ATP level at 250 nM incubated for 5 hrs followed by compound washout and subsequent 2 mW/cm2 UVA irradiation measured 5 hrs post irradiation by chemiluminescence-based assay; type: functional
H22 [34] = test: Antitumor activity against mouse H22 cells allografted in immunocompetent Balb/c mouse assessed as inhibition of tumour formation at 60 nM incubated with cells for 5 hrs prior to 20 mins 2 mW/cm2 UVA irradiation post compound washout followed by vaccination and measured over 20 days; type: functional, cell-based
[35] = Toxicity in immunocompetent BALB/c mouse allografted with mouse H22 cells assessed as change in body weight at 250 nM incubated with cells for 5 hrs followed by compound washout before 2 mW/cm2 UVA irradiation for 20 mins and followed by vaccination and subsequent H22 cells addition 10 days post vaccination and measured over 30 days; settings: 0.25 µM
H22 [36] = test: Dark toxicity in mouse H22 cells assessed as increase in intracellular calreticulin level at 60 to 250 nM measured after 5 hrs by flow cytometric analysis; type: cell-based; settings: h22, 5 h, 0.25 µM

## Cc1cn([C@H]2C[C@H](n3cc(CNC(=O)CCCCCOc4ccc5c(c4)-c4nc6cc7ccccc7cc6nc4[C@@H]4C(C)(C)CCC[C@]54C)nn3)[C@@H](CO)O2)c(=O)[nH]c1=O
MCF7 [1]
  pIC50: 7.30
Bel-7402 [2]
  Activity: Non-Toxic
H22 [3]
  Activity: Non-Toxic
H22 [4]
  pIC50: 7.49
MCF7 [5]
  Activity: Non-Toxic
A-375 [6]
  pIC50: 7.36
A-375 [7]
  Activity: Non-Toxic
Bel-7402 [8]
  pIC50: 7.35

## O=C1c2c(O)ccc(O)c2C(=O)c2c(NCCNCCO)ccc(NCCNCCO)c21 [MITOXANTRONE]
H22 [9]
  inhibition: inactive
H22 [10]
  Activity: Active
H22 [11]
  Activity: Active
A-375 [12]
  pIC50: 6.95
Bel-7402 [13]
  pIC50: 6.93
  IC90: 1300 nM
H22 [14]
  Activity: inactive
H22 [15]
  Activity: inactive
H22 [16]
  inhibition: Active
[17]
  IC50 at 5 h: 187 nM
MCF7 [18]
  pIC50: 6.42
H22 [19]
  Activity: 9 nM
H22 [20]
  Activity: Active

## C=CC1=C(C)c2cc3[nH]c(cc4nc(cc5[nH]c(cc1n2)c(C)c5CCC(=O)O)C(CCC(=O)O)=C4C)c(C)c3C=C [PROTOPORPHYRIN]
Bel-7402 [8]
  pIC50: 6.51

## Cc1cn([C@H]2C[C@H](n3cc(CNC(=O)CCCCCOc4ccc5c(c4)-c4nc6ccccc6nc4[C@@H]4C(C)(C)CCC[C@]54C)nn3)[C@@H](CO)O2)c(=O)[nH]c1=O
Bel-7402 [8]
  pIC50: 6.60

## Cc1cn([C@H]2C[C@H](n3cc(CNC(=O)CCCCCOc4ccc5c(c4)-c4nc6cc7ccccc7cc6nc4[C@H]4C(C)(C)CCC[C@]54C)nn3)[C@@H](CO)O2)c(=O)[nH]c1=O
MCF7 [1]
  pIC50: 7.63
H22 [21]
  Activity: Active
Bel-7402 [2]
  Activity: Non-Toxic
H22 [3]
  Activity: Non-Toxic
H22 [22]
  Activity: Active
H22 [23]
  inhibition: inactive
H22 [24]
  inhibition: Active
H22 [25]
  Activity: Non-Toxic
H22 [26]
  inhibition: Active
H22 [4]
  pIC50: 7.54
MCF7 [27]
  Activity: Active
H22 [28]
  Activity: 3 ng/mL
MCF7 [5]
  Activity: Non-Toxic
H22 [29]
  inhibition: Active
H22 [30]
  Activity: 335 nM
A-375 [6]
  pIC50: 7.60
H22 [31]
  inhibition: Active
A-375 [7]
  Activity: Non-Toxic
H22 [32]
  Activity: Active
H22 [33]
  Activity: Active
H22 [34]
  inhibition: inactive
Bel-7402 [8]
  pIC50: 7.58
[35]
  Activity: Non-Toxic
H22 [36]
  Activity: Non-Toxic
